The nature of the data set: gradient 5% acetonitrile 3 min, to 50% in 2 min, to 85% in 15 min, held 3 min, 100 µL/min. Conditions: column: Zorbax Extend-C18 2.1 x 50 mm; eluents: water / acetonitrile, 0.1% formic acid. In a few lines: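 Each retention time is based on an adduct peak selected computationally and verified by manual inspection. Measurements used HPLC–quadrupole time-of-flight mass spectrometry in positive and negative ionization mode on mixtures of ~100 pure standards. Chromatography ran on a Zorbax Extend-C18 column (2.1 × 50 mm, 1.8 μm) at 100 μL/min with water and acetonitrile, each containing 0.1% formic acid, and dead and dwell volumes of 40 μL and 900 μL.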
`Cc1cccc(-n2nnc(C(=O)O)c2-c2cccnc2)c1` displayed an RP-LC retention time of 650 s. The same measure for `CCCCCn1c(=O)c2ccccc2n(Cc2nc(-c3ccc(Cl)c(F)c3)no2)c1=O`: 659 s; for `O=c1c2cc3c(cc2nc(SCc2nc(-c4ccc(F)cc4)no2)n1CC1CCCO1)OCO3` (centres undefined): 1130 s; for `O=C(NCCc1cccs1)c1cccc2c1CCN2C(=O)Nc1ccccc1`: 895 s. The same measure for `O=C(C1Sc2ccccc2N(CC(=O)N2CCc3ccccc32)C1=O)N1CCCCCC1` (centres undefined): 987 s; for `Cc1cc(C2CCCN2C(=O)Cc2cccc(Cl)c2)no1` (centres undefined): 816 s. For the compound `COc1ccc(NC(=O)CN2CCc3[nH]c4c(C)cc(C)cc4c(=O)c3C2)cc1OC`, the RP-LC retention time came to 922 s. Turning to `Cn1nccc1-c1cccc(-c2noc(-c3cccc(Cl)c3)n2)c1`, the RP-LC retention time worked out at 1260 s. Consider `Cn1nc(CN2CCOCC2)c2c1CCN(S(=O)(=O)c1cc(F)cc(F)c1)C2`, for which the RP-LC retention time was 642 s. `Cc1csc(-c2cc(S(=O)(=O)NCCCN3CCc4ccccc4C3)c(C)s2)n1`: the RP-LC retention time is 708 s. Compound `COCCCN(C(=O)c1ccc(F)cc1)C(C)C(=O)c1c(C)[nH]c(C(=O)OC)c1C` (centres undefined) returned an RP-LC retention time of 754 s.

`CCOc1ccc(NC(=O)c2cn3c(n2)CCCC3)cc1` had an RP-LC retention time of 614 s. The same measure for `CCc1nnc2c(=O)n(CC(=O)NC(C)c3ccccc3)c3cccnc3n12` (centres undefined): 714 s; for `CN1C(=O)c2cc(C(=O)N3CCCCCC3)nn2CC1(C)C(=O)NC1CCCC1` (centres undefined): 714 s. Regarding `CCn1c(N2CCCC(C(=O)NCC3CCN(Cc4cc(C)ccc4C)CC3)C2)cc(=O)n(C)c1=O` (centres undefined), the RP-LC retention time was found to be 665 s.

`Cc1cccc2nnc(N3CCN(C(=O)c4cccnc4)CC3)n12`: the RP-LC retention time is 515 s.

`Cc1ccc(-c2cc3c(=O)n(CC(O)c4ccccc4)ccn3n2)c(C)c1` (centres undefined) had an RP-LC retention time of 982 s. The same measure for `COc1cccc(CNC(=O)CN2C(=O)NC(c3ccc(Cl)cc3)C3=C2COC3=O)c1` (centres undefined): 764 s; for `CCn1nc(C)c(CCNC(=O)c2cc3c(=O)n(Cc4ccco4)ccc3nc2C)c1C`: 610 s; for `COc1cccc(Nc2c(-c3cccc(O)c3)nc3cnccn23)c1`: 929 s. The same measure for `CCOc1ccccc1NS(=O)(=O)c1cn(CC(C)C)c2ncccc12`: 1030 s; for `CCOc1ccc(C(O)CN2CCN(c3ccccn3)CC2)cc1` (centres undefined): 560 s; for `CCc1ccc(-c2ccc(=O)n(Cc3nc(-c4ccc5c(c4)OCO5)no3)n2)cc1`: 1080 s. `Cc1ccc2[nH]cc(CCNC(=O)CS(=O)Cc3cnn(-c4ccccc4)c3-n3cccc3)c2c1` (centres undefined) returned an RP-LC retention time of 875 s. For the compound `Cc1ccc(C(=O)NCc2ccc3c(c2)ncn3C)c(C)c1`, the RP-LC retention time came to 611 s. With `COc1ccccc1C1(CNS(=O)(=O)c2cccc(Cl)c2C)CCOCC1` the figure was 969 s. The same measure for `CC1CCN(c2cc(-n3cnc(C(=O)Nc4ccc5c(c4)OCCO5)c3)ncn2)CC1`: 1030 s; for `COc1ccc(CN2CCC3(CC2)CC(O)CCO3)cc1C` (centres undefined): 606 s.

In turn, `Cc1nc2ccc(Cl)cn2c(=O)c1NC(=O)Cc1ccc(-c2ccccc2)cc1` showed an RP-LC retention time of 775 s. With `CCc1ccc(NC(=O)C2CCc3nc(N4CCOCC4)ncc3C2)cc1` (centres undefined) the figure was 835 s; with `O=C(Nc1cccnc1)c1cccc(S(=O)(=O)N2CCCCCC2)c1`, 631 s. With `Cc1nnc(NC(=O)Cc2csc(SCC(=O)c3ccc(F)cc3)n2)s1` the figure was 724 s.

Compound `Cc1nnc(C2CC3(CCN(Cc4ccccc4)CC3)CN2Cc2ccccc2)o1` (centres undefined) gave an RP-LC retention time of 636 s. With `O=C(Cc1csc(COc2ccccc2)n1)N1CCN(c2ccccn2)CC1` the figure was 617 s. The compound `O=c1oc2cc(O)ccc2cc1-c1ccc(F)cc1` displayed an RP-LC retention time of 852 s. With `CCc1ccc(Oc2cc(N3CCC(C(=O)NC4CCC(C)CC4)CC3)ncn2)cc1` (centres undefined) the figure was 1120 s. The same measure for `CC(C)c1ccc(NC(=O)C2CCN(S(=O)(=O)c3cn(C(C)C)cn3)CC2)cc1`: 900 s. Take `CCOc1ccccc1N1CCN(c2cc(C(=O)O)c3cc(NC(=O)C(C)C)ccc3n2)CC1`: the RP-LC retention time turned out to be 684 s. With `Cc1ccc2oc(=O)c3cc(C(=O)N4CCN(c5ccccn5)CC4)sc3c2c1` the figure was 664 s. With `Cc1nc2cc(N3CCC(C(=O)Nc4ccc5c(c4)OCO5)CC3)cnc2nc1C`, the RP-LC retention time amounted to 695 s. The same measure for `O=C(Cc1nnc(-c2ccccc2)o1)NCc1ccccn1`: 577 s; for `O=C(NCc1ccc2c(c1)OCO2)C1CCCN(c2nccn3nc(-c4ccccc4Cl)cc23)C1` (centres undefined): 895 s; for `COc1ccc(NC(=O)N2CCCC2c2nncn2C2CCCC2)c(OC)c1` (centres undefined): 662 s. The same measure for `Cc1nn(-c2ccc(N3CCOCC3)nn2)c(C)c1CCC(=O)NCCc1ccco1`: 661 s; for `Cc1cc(S(=O)(=O)Nc2cccn3cnnc23)ccc1F`: 686 s.

Take `CCN1CCN(c2nc(F)c(F)c(S(=O)(=O)CCNc3cccc4ccccc34)c2F)CC1`: the RP-LC retention time came out at 697 s. As for `Cc1cc(C(=O)N2CCCCC2)c2c(=O)n(CC(=O)NC3CCCCC3)c(=O)n(C)c2n1`, the RP-LC retention time was found to be 786 s. The same measure for `COc1cc(CNC(=O)c2cn3cc(C)ccc3n2)cc(OC)c1`: 604 s. The compound `Cc1ccc(-n2nnnc2CNC(=O)COc2ccc(Cl)cc2Cl)cc1C` yielded an RP-LC retention time of 931 s. The same measure for `COc1cccc(CSc2ccc(-n3nc4c(c3C)CCC4)nn2)c1`: 1240 s; for `CCc1nc2c(=O)n(CC(=O)N3CCN(c4cc(C)ccc4C)CC3)nc(C)c2s1`: 911 s. With `CCN(CC)c1ccc(Nc2nc(-c3ccc(Cl)cc3)cs2)cc1` the figure was 791 s. As for `Cc1ccccc1NC(=O)N1CCC2(CC1)Nc1ccccc1-n1cccc12`, the RP-LC retention time was 982 s. With `CCc1nn(CC(=O)N2CCN(c3ccccn3)CC2)c(=O)c2cc3ccccc3n12` the figure was 607 s; with `CC(C)N1CCn2cc(S(=O)(=O)Nc3ccc(F)cc3Cl)cc2C1=O`, 778 s; with `Cc1ccc(-n2nc(N3CCN(C(=O)c4cccs4)CC3)ccc2=O)cc1C`, 830 s. The same measure for `CCOc1cccc(-c2noc(-c3nn(-c4ccc(OC)cc4)ccc3=O)n2)c1`: 938 s.

For the compound `CCCNC(=O)C1CCN(c2ccc(SCC(=O)Nc3ccc(N(CC)CC)cc3C)nn2)CC1`, the RP-LC retention time came to 576 s. The same measure for `CCc1nc2cc(-c3noc(-c4cccc(OC)c4)n3)ccc2o1`: 1210 s; for `CC(Cc1ccccc1)NC(N)=O` (centres undefined): 698 s; for `O=C(CCc1c(-c2ccc(F)cc2)nc2ccccn12)Nc1cccc(Cl)c1`: 730 s.

Take `CCN1C(=O)c2ccccc2Sc2cc(-c3noc(CNC(=O)c4cccs4)n3)ccc21`: the RP-LC retention time came out at 917 s. Compound `Cc1ccccc1NC(=O)N1CCC(N2CCN(Cc3ccccc3)C2=O)CC1` came in with an RP-LC retention time of 794 s. In turn, `COc1cc(OC)cc(C(=O)N2CCN(c3nnc4c(Cl)cccn34)CC2)c1` came in with an RP-LC retention time of 603 s. With `O=C(c1ccc2c(c1)OCO2)N1CCC2(CC1)N=C(c1ccc(Cl)cc1)NO2` the figure was 956 s; with `O=C(CN1C(=O)CCc2cc(S(=O)(=O)N3CCCCC3)ccc21)NC1CCCc2ccccc21` (centres undefined), 935 s. On to `Cc1ccc(-c2nc3cnccn3c2NCCC(=O)O)cc1`, for which the RP-LC retention time stood at 610 s. In the case of `CN(C(=O)Cn1nc(Cc2ccncc2)c2ccccc2c1=O)c1cccc(Cl)c1`, the RP-LC retention time is 644 s.

With `CC1(COc2ccc3c(c2)ncn3-c2ccc3cccc(N4CCC(N)CC4)c3n2)COC1`, the RP-LC retention time came out at 667 s. With `CNC(=O)N1CCOc2cc(C)ccc21` the figure was 713 s; with `O=C(Nc1ccccc1Br)N1CCN(CCn2cnc3cccnc32)CC1`, 595 s. Turning to `CCCc1noc(-c2ccc(-n3ncc(C(=O)N4CCC(C)CC4)c3C)nc2)n1`, the RP-LC retention time stood at 1130 s. `COC(=O)c1ccccc1NCCO` registered an RP-LC retention time of 787 s. With `COc1ccccc1CNC(=O)C1CCCN(S(=O)(=O)c2cc(-c3noc(C)n3)cs2)C1` (centres undefined) the figure was 892 s; with `CCc1ccc(-c2cn3cc(C(=O)N4CCCN(C)CC4)ccc3n2)cc1`, 570 s; with `COCCNC(=O)c1cn(C)c2ncccc12`, 582 s. The same measure for `COC(=O)c1c(C)[nH]c(C(=O)N2CCCC(C(=O)NCc3ccc(OC(C)C)cc3)C2)c1C` (centres undefined): 812 s; for `N#Cc1cnc2ccc(F)cc2c1N1CCC(C(=O)N2CCSCC2)CC1`: 766 s; for `CCN1C(=O)COc2ccc(-c3csc(NC(=O)c4ccco4)n3)cc21`: 840 s.

The record behind these values is the METLIN SMRT retention time set (Domingo-Almenara et al. 2019).
